# Measurements: patent US20160130278A1 (TAISHO PHARMACEUTICAL CO., LTD, priority 2013, published 2016)
# Target: T1, human type 1 glycine transporter (GlyT1) (Homo sapiens, UniProt P48067)
# T1 construct: T98G cells (glioma cells) expressing human type 1 glycine transporter (GlyT1) were used
# T1 sequence (P48067 1-706): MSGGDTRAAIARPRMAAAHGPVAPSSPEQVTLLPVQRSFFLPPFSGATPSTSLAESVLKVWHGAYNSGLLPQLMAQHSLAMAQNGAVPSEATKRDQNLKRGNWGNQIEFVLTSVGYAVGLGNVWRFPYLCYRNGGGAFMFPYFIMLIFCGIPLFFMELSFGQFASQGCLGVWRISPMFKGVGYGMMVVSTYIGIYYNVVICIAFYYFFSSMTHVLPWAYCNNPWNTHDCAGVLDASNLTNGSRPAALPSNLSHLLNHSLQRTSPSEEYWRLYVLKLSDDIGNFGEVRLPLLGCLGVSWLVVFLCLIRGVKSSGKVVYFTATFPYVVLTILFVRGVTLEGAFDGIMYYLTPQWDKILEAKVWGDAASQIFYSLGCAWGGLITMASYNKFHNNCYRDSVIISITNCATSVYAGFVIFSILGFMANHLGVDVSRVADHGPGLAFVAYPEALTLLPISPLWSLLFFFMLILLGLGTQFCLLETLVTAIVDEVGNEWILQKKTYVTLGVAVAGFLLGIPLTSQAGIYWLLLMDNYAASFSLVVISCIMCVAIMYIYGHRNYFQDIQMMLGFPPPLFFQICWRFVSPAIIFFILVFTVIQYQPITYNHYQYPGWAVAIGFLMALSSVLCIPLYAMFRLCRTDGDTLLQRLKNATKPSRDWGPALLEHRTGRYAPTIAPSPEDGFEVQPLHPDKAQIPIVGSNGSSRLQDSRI
# Experiment: Glycine uptake inhibition experiment ([3H]glycine uptake)
# Format: cell-based
# Details: GlyT1
# Outline: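 T98G glioma cells expressing human GlyT1 were pretreated 10 min with compound in HEPES buffer pH 7.4 (0.2% BSA), then incubated with compound plus 250 nM final [3H]glycine for 15 min at room temperature. Intracellular radioactivity was counted after NaOH lysis; 10 μM ALX5407 defined non-specific uptake. IC50 came from 10^−9–10^−5 M curves.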
row,IC50 [nM],SMILES
1,1500,"CCn1cc(-c2cccc(C(NC(=O)c3cccc(C(F)(F)F)c3F)C3(O)CCC(F)(F)CC3)c2)cn1 (stereo not drawn) [Compound 181, N-[(4,4-difluoro-1-hydroxycyclohexyl)[3-(1-ethyl-1H-pyrazol-4-yl)phenyl]methyl}-2-fluoro-3-(trifluoromethyl)benzamide]"
2,100,"O=C(NC(c1cccc(F)c1Cl)C1(O)CCC(F)(F)CC1)c1nccc(C(F)(F)F)c1Cl (single isomer, unassigned) [Compound 177, 3-chloro-N-[(2-chloro-3-fluorophenyl)(4,4-difluoro-1-hydroxycyclohexyl)methyl]-4-(trifluoromethyl)pyridine-2-carboxamide]"
3,250,"O=C(NC(c1cc(Cl)ccc1F)[C@]1(O)CC[C@@H](F)CC1)c1nccc(C(F)(F)F)c1Cl (single isomer, unassigned) [Compound 375, 3-chloro-N-[(5-chloro-2-fluroophenyl)(cis-4-fluoro-1-hydroxycyclohexyl)methyl]-4-(trifluoromethyl)pyridine-2-carboxamide]"
4,2000,"O=C(NC(c1cccc(-c2cccnc2)c1)C1(O)CCCC1)c1nccc(C(F)(F)F)c1Cl (single isomer, unassigned) [Compound 24, 3-chloro-N-{(1-hydroxycyclopentyl)[3-(pyridin-3-yl)phenyl]methyl}-4-(trifluoromethyl)pyridine-2-carboxamide]"
5,1000,"O=C(N[C@H](c1cccc(Br)c1)C1(O)CCCC1)c1nccc(C(F)(F)F)c1Cl [Compound 34, N-[(R)-(3-bromophenyl)(1-hydroxycyclopentyl)methyl]-3-chloro-4-(trifluoromethyl)pyridine-2-carboxamide]"
6,1900,"Cc1ccc(-c2ncccn2)c(C(=O)NC(c2cccc(F)c2Cl)[C@]2(O)CC[C@@H](F)CC2)n1 (single isomer, unassigned) [Compound 284, N-[(2-chloro-3-fluorophenyl)(cis-4-fluoro-1-hydroxycyclohexyl)methyl]-6-methyl-3-(pyrimidin-2-yl)pyridine-2-carboxamide]"
7,1600,"CN(C)C(=O)c1cccc(C(NC(=O)c2nccc(C(F)(F)F)c2Cl)C2(O)CCCC2)c1 (stereo not drawn) [Compound 105, 3-chloro-N-{[3-(dimethylcarbamoyl)phenyl](1-hydroxycyclopentyl)methyl}-4-(trifluoromethyl)pyridine-2-carboxamide]"
8,990,"O=C(NC(c1cccc(F)c1Cl)[C@]1(O)CC[C@@H](F)CC1)c1cccc(C(F)(F)F)c1F (single isomer, unassigned) [Compound 245, N-[(2-chloro-3-flurophenyl)(cis-4-fluoro-1-hydroxycyclohexyl)methyl]-2-fluoro-3-(trifluoromethyl)benzamide]"
9,430,"O=C(NC(c1cccnc1Cl)[C@]1(O)CC[C@@H](F)CC1)c1cc(C(F)(F)F)ccc1Cl (single isomer, unassigned) [Compound 325, 2-chloro-N-[(2-chloropyridin-3-yl)(cis-4-fluoro-1-hydroxycyclohexyl)methyl]-5-(trifluoromethyl)benzamide]"
10,110,"O=C(NC(c1cccc(F)c1Cl)[C@]1(O)CC[C@@H](F)CC1)c1ncc(C(F)(F)F)cc1-n1nccn1 (single isomer, unassigned) [Compound 392, N-[(2-chloro-3-fluorophenyl)(cis-4-fluoro-1-hydroxycyclohexyl)methyl]-3-(2H-1,2,3-triazol-2-yl)-5-(trifluoromethyl)pyridine-2-carboxamide]"
11,110,"CCn1cc(-c2cccc(C(NC(=O)c3nccc4ccccc34)C3(O)CCCC3)c2)cn1 (stereo not drawn) [Compound 22, N-{[3-(1-ethyl-1H-pyrazol-4-yl)phenyl](1-hydroxycyclopentyl)methyl}isoquinoline-1-carboxamide]"
12,6400,"O=C(NC(c1cccc(F)c1Cl)[C@]1(O)CC[C@@H](F)CC1)c1ccc(Cl)cc1C(F)(F)F (single isomer, unassigned) [Compound 313, 4-chloro-N-[(2-chloro-3-fluorophenyl)(cis-4-fluoro-1-hydroxycyclohexyl)methyl]-2-(trifluoromethyl)benzamide]"
13,2600,"CCn1cc(-c2cccc(C(NC(=O)c3cccc(C(F)(F)F)c3C)C3(O)CCC(F)(F)CC3)c2)cn1 (single isomer, unassigned) [Compound 149, N-{(4,4-difluoro-1-hydroxycyclohexyl)[3-(1-ethyl-1H-pyrazol-4-yl)phenyl]methyl}-2-methyl-3-(trifluoromethyl)benzamide]"
14,29,"O=C(NC(c1cccc(Cl)c1Cl)C1(O)CCCC1)c1nccc(C(F)(F)F)c1Cl (single isomer, unassigned) [Compound 117, 3-chloro-N-[(2,3-dichlorophenyl)(1-hydroxycyclopentyl)methyl]-4-(trifluoromethyl)pyridine-2-carboxamide]"
15,730,"CCn1cc(-c2cccc(C(NC(=O)c3cc(Cl)ccc3C(F)(F)F)C3(O)CCC(F)(F)CC3)c2)cn1 (stereo not drawn) [Compound 203, 5-chloro-N-{(4,4-difluoro-1-hydroxycyclohexyl)[3-(1-ethyl-1H-pyrazol-4-yl)phenyl]methyl}-2-(trifluoromethyl)benzamide]"
16,1700,"O=C(NC(c1cccc(F)c1Cl)[C@]1(O)CC[C@@H](F)CC1)c1cccnc1-n1cccn1 (single isomer, unassigned) [Compound 268, N-[(2-chloro-3-fluorophenyl)(cis-4-fluoro-1-hydroxycyclohexyl)methyl]-2-(1H-pyrazol-1-yl)pyridine-3-carboxamide]"
17,670,"O=C(NC(c1cccc(Br)c1)C1(O)CCCC1)c1cccc(C(F)(F)F)c1Cl (stereo not drawn) [Compound 2, N-[(3-bromophenyl)(1-hydroxycyclopentyl)methyl]-2-chloro-3-(trifluoromethyl)benzamide]"
18,57,"O=C(NC(c1cccc(Cl)c1F)C1(O)CCC(F)(F)CC1)c1nccc(C(F)(F)F)c1Cl (single isomer, unassigned) [Compound 168, 3-chloro-N-[(3-chloro-2-fluorophenyl)(4,4-difluoro-1-hydroxycyclohexyl)methyl]-4-(trifluoromethyl)pyridine-2-carboxamide]"
19,2400,"O=C(NC(c1cccc(F)c1Cl)[C@]1(O)CC[C@@H](F)CC1)c1ccccc1-n1cnnn1 (single isomer, unassigned) [Compound 270, N-[(2-chloro-3-fluorophenyl)(cis-4-fluoro-1-hydroxycyclohexyl)methyl]-2-(1H-tetrazol-1-yl)benzamide]"
20,180,"O=C(NC(c1cccc(Cl)c1)C1(O)CCC(F)(F)CC1)c1nccc(C(F)(F)F)c1Cl (single isomer, unassigned) [Compound 166, 3-chloro-N-[(3-chlorophenyl)(4,4-difluoro-1-hydroxycyclohexyl)methyl]-4-(trifluoromethyl)pyridine-2-carboxamide]"
21,43,"CCn1cc(-c2cccc([C@H](NC(=O)c3cccc(C(F)(F)F)c3Cl)C3(O)CCCC3)c2)cn1 [Compound 74, 2-chloro-N-[(S)-[3-(1-ethyl-1H-pyrazol-4-yl)phenyl](1-hydroxycyclopentyl)methyl]-3-(trifluoromethyl)benzamide]"
